Assay results reported in US5605929A, “Methods and compositions for inhibiting 5α-reductase activity” (priority 1995, dated 1997).
Like-named read-outs stand apart in the source and are kept apart here. One block for each molecule: values may come before it.

Key:
5α-reductase [1] = details: cited from earlier work
[2] = target: T1, human 5α-reductase isozyme type 1 (Homo sapiens, UniProt P18405); assay: 4-[14C]testosterone reduction, human type 1 isozyme; type: biochemical; details: for activity on type 1 isozyme: enzymatic assay; for inhibition at 1 µM / inhibition at 3 µM / inhibition at 10 µM / inhibition at 30 µM: read-out: % Inhibition of 5α-reduction
T1 construct: expressed in transfected cells; host or cells: Rat-1A cells infected with pMV7 retrovirus; microsomes of these cells
T1 sequence (P18405 1-259): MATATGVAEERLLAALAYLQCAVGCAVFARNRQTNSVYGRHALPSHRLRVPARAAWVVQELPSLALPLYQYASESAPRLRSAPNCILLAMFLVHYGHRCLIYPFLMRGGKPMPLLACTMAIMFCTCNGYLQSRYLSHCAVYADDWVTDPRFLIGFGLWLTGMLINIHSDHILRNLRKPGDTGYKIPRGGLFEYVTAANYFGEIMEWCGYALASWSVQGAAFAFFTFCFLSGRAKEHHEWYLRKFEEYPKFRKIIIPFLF
Text: (§1) The cDNAs for the human type 1 and 2 5α-reductases were isolated from human prostate λZAP II™ cDNA libraries using the published sequence of the 5α-reductases, PCR™ and standard library screening techniques (Sambrook et al., 1989). The type 1 and 2 cDNAs correspond to nucleotides 31-870 and 28-829, respectively, of the published sequences for these 5α-reductases (Anderson and Russell, 1990; Anderson et al., 1991). The type 1 and 2 cDNAs were subcloned into the retroviral expression vector pMV7 (Kirschmeier et al., 1988) and high titer stocks of virus containing the type 1 and 2 cDNAs were generated using the packaging cells BOSC 23 293 (Kirschmeier et al., 1988). Rat.-1A cells (Pear et al., 1993) were infected with virus (Topp, 1981) and cells containing integrated retrovirus were selected for G418-SO4 resistance, (Brown and Scott, 1987).
(§2) Microsomes were prepared as described previously (Liang and Liao, 1992) from the liver of adult Sprague-Dawley female rats or Rat-1A cells expressing a specific type of human 5α-reductase. […] The data presented was based on the rate of reaction.
(§3) The reaction was started by the addition of 25 μl of microsomes (25 μg protein). The mixture was incubated at 37° for 30-60 min and stopped by addition of 0.5 ml of ethyl acetate and mixing for 1 min. The organic solvent extract was removed under vacuum.

Soybean lipoxygenase = Soybean lipoxygenase (Glycine max, UniProt P08170); details: cited from earlier work
[3] = target: T2, human 5α-reductase isozyme type 2 (Homo sapiens, UniProt P31213); assay: [3H]4-MA binding, human type 2 isozyme expressed in Rat-1A cells; details: read-out: % Inhibition of [^3 H]4-MA binding
T2 construct: expressed in transfected cells; host or cells: Rat-1A cells infected with pMV7 retrovirus; microsomes of these cells
T2 sequence (P31213 1-254): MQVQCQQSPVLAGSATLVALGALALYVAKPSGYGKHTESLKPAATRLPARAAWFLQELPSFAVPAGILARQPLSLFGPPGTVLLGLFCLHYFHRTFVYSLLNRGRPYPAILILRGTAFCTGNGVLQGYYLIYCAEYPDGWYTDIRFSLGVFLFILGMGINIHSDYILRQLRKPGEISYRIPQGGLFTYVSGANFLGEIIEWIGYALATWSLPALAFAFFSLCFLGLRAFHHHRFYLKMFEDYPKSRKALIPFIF
Text: as §1, §2
(§4) [^3 H]4-MA binding assay were described in detail previously (Liang and Liao, 1992; Liang et al., 1983). […] The reaction was started by the addition of 25 μl of microsomes (25 μg protein). After 30-60 min incubation at 0° C., the [^3 H]4-MA bound to microsomes was collected on a Whatman GF/F glass fiber, washed and radioactivity determined (Liang and Liao, 1992).

[4] = test system: androgen-dependent organs; type: in vivo, rat; details: up to 15 mg per day
Description: The control rats were injected with 0.3 ml of 30% ethanol.

[5] = target: T1, human 5α-reductase isozyme type 1; assay: [3H]4-MA binding, human type 1 isozyme expressed in Rat-1A cells; details: read-out: % Inhibition of [^3 H]4-MA binding
Text: as §1, §2, §4

[6] = target: T2, human 5α-reductase isozyme type 2; assay: 4-[14C]testosterone reduction, human type 2 isozyme; type: biochemical; details: for activity on type 2 isozyme: enzymatic assay, concentrations below 30 μM for ECG/EGCG; for inhibition at 1 µM / inhibition at 3 µM / inhibition at 10 µM / inhibition at 30 µM / inhibition at 100 µM: read-out: % Inhibition of 5α-reduction
Text: as §1, §2, §3

[7] = target: T3, 5α-Reductase of Rat Liver Microsomes (Rattus norvegicus, UniProt P24008); assay: [3H]4-MA binding assay, rat liver microsomes (tea catechins); details: read-out: % Inhibition of [^3 H]4-MA binding
T3 sequence (P24008 1-259): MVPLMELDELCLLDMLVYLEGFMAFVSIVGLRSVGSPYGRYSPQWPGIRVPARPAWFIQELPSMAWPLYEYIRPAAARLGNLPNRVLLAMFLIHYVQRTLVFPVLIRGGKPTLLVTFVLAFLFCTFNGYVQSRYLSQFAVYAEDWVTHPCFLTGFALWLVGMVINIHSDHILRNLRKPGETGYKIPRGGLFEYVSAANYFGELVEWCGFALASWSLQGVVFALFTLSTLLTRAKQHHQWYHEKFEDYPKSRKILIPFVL
Description: Microsomes were prepared as described previously (Liang and Liao, 1992) from the liver of adult Sprague-Dawley female rats or Rat-1A cells expressing a specific type of human 5α-reductase. Each study was carried out in duplicate or triplicate which were usually within 10% of each other. Several studies were preformed to assure that the results shown are representative. The data presented was based on the rate of reaction.
as §4

5α-reductase [8] = assay: Catechin gallates in rat liver microsomes or cells expressing type 1 or type 2 5α-reductase; type: biochemical; details: 40 μM
[9] = test system: ventral prostate and preputial organ; details: 5 mg ip daily, 14 days
Text: Male Sprague-Dawley rats, 60±5 g body weight, were used. Each group had 6 rats, and all were castrated.

[10] = test system: forehead sebum production; assay: Forehead sebum production (L/R ratio), human male; type: in vivo
Description: A volunteer was used to test and analyze sebum production from the forehead region. The forehead was washed thoroughly by soap twice and cleaned by 70% isopropyl alcohol twice. Sebum production was measured 30 to 60 minutes later by a sebum meter (Courage/Khazaka Electronic GmbH, Germany). The sebum meter tape probe (7 mm×8 mm) covered 56 mm^2 area in each measurement. Ten measurements were made within the 4 cm square area (16 cm^2) located at the middle of the left or right side forehead between the eyebrow and the hair line.
The sebum meter detected the difference in the transparency of the tape before and after the tape was placed on the forehead for 30 seconds and expressed the difference in an arbitrary number (S-value) between 0 to 300 (or higher). S-values of sebum accumulated on the foreheads of men are usually 200 to 300.

[11] = target: T3, 5α-Reductase of Rat Liver Microsomes; assay: biochemical
[12] = test system: 17β-steroid dehydrogenase; assay: 4-Androstenedione formation from [3H]testosterone by PC-3 cells (17β-steroid dehydrogenase); type: cell-based, human
[13] = test system: Human Prostatic Cancer Cells; assay: Cell morphology during 2 hour incubation; type: cell-based
PC-3 = assay: 5α-DHT formation from [3H]testosterone by PC-3 cells; type: cell-based, human
hamster flank organ = assay: Flank organ, castrated immature male hamsters, topical treatment; type: in vivo, Syrian golden hamster
Procedure, shortened: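 Castrated immature male hamsters (5 per group) received 5 μl once daily on the right flank organ of ethanol vehicle, androgen (T or 5α-DHT), fatty acid, or androgen plus fatty acid. The left organ was left untreated. Pigmented macule and sebaceous gland growth were assessed with caliper long and short axes, as mean ± SD.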

Sequence of Soybean lipoxygenase (P08170 whole entry): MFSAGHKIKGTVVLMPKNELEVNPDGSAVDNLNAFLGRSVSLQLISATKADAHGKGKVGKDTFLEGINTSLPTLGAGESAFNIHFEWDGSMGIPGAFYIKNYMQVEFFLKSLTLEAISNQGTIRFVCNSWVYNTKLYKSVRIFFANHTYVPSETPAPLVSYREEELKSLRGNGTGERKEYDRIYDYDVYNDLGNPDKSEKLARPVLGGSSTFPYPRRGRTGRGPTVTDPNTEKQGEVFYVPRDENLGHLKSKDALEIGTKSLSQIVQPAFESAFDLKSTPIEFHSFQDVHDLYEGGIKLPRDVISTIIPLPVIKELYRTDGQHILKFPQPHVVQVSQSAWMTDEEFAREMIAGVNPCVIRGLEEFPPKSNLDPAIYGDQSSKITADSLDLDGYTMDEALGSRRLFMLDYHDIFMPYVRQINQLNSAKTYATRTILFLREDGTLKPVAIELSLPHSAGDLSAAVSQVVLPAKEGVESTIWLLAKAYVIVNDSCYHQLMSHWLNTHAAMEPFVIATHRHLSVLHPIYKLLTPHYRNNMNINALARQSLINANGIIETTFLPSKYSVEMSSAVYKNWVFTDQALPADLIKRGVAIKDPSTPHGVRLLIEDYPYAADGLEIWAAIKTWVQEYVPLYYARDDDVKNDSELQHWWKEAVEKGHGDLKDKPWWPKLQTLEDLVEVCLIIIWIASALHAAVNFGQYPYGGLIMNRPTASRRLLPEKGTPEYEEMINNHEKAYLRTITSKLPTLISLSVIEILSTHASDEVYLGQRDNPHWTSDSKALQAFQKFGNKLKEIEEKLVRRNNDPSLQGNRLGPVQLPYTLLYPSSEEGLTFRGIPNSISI

SMILES: Cc1c(O[C@@H](C)c2ccc(CC(C)C)cc2)ccc(C(=O)Nc2ccccc2OCCCC(=O)O)c1C [ONO-3805]
- 5α-reductase inhibition (5α-reductase [1]): 5α-reductase inhibitory activity

SMILES: C[C@]12CC[C@H]3[C@@H](CCC4C(=[N+]=[N-])C(=O)CC[C@@]43C)[C@@H]1CC[C@@H]2CCCO (stereo partly shown) [4-diazo-21-hydroxymethyl-pregnane-3-one]
- 5α-reductase inhibition (5α-reductase [1]): shown to inhibit 5α-reductase

SMILES: Oc1cc(O)c2c(c1)O[C@H](c1cc(O)c(O)c(O)c1)[C@H](O)C2 [EGC, (-)Epigallocatechin]
- activity on type 1 isozyme [2]: not active
- inhibition at 1 µM [2]: < 10%
- inhibition at 3 µM [2]: < 10%
- inhibition at 10 µM [2]: < 10%
- inhibition at 30 µM [2]: < 10%
- IC50 (Soybean lipoxygenase): 21 µM
- inhibition at 1 µM [3]: < 10%
- inhibition at 3 µM [3]: < 10%
- inhibition at 10 µM [3]: < 10%
- inhibition at 30 µM [3]: 13%
- inhibition at 100 µM [3]: 14%
- effect on the body weight [4]: No significant effect
- inhibition at 1 µM [5]: < 10%
- inhibition at 3 µM [5]: < 10%
- inhibition at 10 µM [5]: < 10%
- inhibition at 30 µM [5]: < 10%
- inhibition at 100 µM [5]: 23%
- activity on type 2 isozyme [6]: not active
- inhibition at 1 µM [6]: < 10%
- inhibition at 3 µM [6]: < 10%
- inhibition at 10 µM [6]: < 10%
- inhibition at 30 µM [6]: < 10%
- inhibition at 100 µM [6]: < 10%
- inhibition at 5 µM [7]: < 10%
- inhibition at 10 µM [7]: < 10%
- inhibition at 20 µM [7]: < 10%
- inhibition at 40 µM [7]: < 10%
- inhibition at 200 µM [7]: < 10%

SMILES: C[C@]12CC[C@H]3[C@@H](CCC4=CC(=O)CC[C@@]43C)[C@@H]1CC[C@@H]2C(=O)O [4-androstane-3-one-17β-carboxylic acid]
- 5α-reductase inhibition (5α-reductase [1]): shown to inhibit 5α-reductase

- inhibition at 1 µM ([2]; Table 10, 1 μM): < 10%
- inhibition at 3 µM ([2]; Table 10, 3 μM): 13%
- inhibition at 10 µM ([2]; Table 10, 10 μM): < 10%
- inhibition at 30 µM ([2]; Table 10, 30 μM): < 10%
- activity on type 1 isozyme [2]: not active
- inhibition at 1 µM ([3]; Table 9, 1 μM): < 10%
- inhibition at 3 µM ([3]; Table 9, 3 μM): < 10%
- inhibition at 10 µM ([3]; Table 9, 10 μM): < 10%
- inhibition at 30 µM ([3]; Table 9, 30 μM): < 10%
- inhibition at 100 µM ([3]; Table 9, 100 μM): < 10%
- inhibition at 1 µM ([5]; Table 9, 1 μM): < 10%
- inhibition at 3 µM ([5]; Table 9, 3 μM): 13%
- inhibition at 10 µM ([5]; Table 9, 10 μM): < 10%
- inhibition at 30 µM ([5]; Table 9, 30 μM): < 10%
- inhibition at 100 µM ([5]; Table 9, 100 μM): 18%
- inhibition at 1 µM ([6]; Table 10, 1 μM): < 10%
- inhibition at 3 µM ([6]; Table 10, 3 μM): < 10%
- inhibition at 10 µM ([6]; Table 10, 10 μM): < 10%
- inhibition at 30 µM ([6]; Table 10, 30 μM): < 10%
- inhibition at 100 µM ([6]; Table 10, 100 μM): < 10%
- inhibition at 5 µM ([7]; Table 8, 5 μM): < 10%
- inhibition at 10 µM ([7]; Table 8, 10 μM): < 10%
- inhibition at 20 µM ([7]; Table 8, 20 μM): < 10%
- inhibition at 40 µM ([7]; Table 8, 40 μM): < 10%
- inhibition at 200 µM ([7]; Table 8, 200 μM): < 10%
SMILES: Oc1cc(O)c2c(c1)O[C@H](c1ccc(O)c(O)c1)[C@H](O)C2 [EC, (-)Epicatechin]
- inhibition (5α-reductase [8]): less than 25%
- effect on body weight increase [9]: not EC or γ-LA
- effect on ventral prostate and preputial organ weights [9]: not EC
- L/R sebum ratio at end of treatment ([10]; 20 mg twice a day, 6 days): 1.02±0.1
- L/R sebum ratio recovered after treatment stopped ([10]; 10 days after stop): 1.21±0.01
- activity on type 2 isozyme [6]: not active

SMILES: CCCCCCCCCCCCCCCCCC(=O)O [Stearic acid]
- inhibition at 10 µM ([11]; read-out: % Inhibition of [^3 H]4-MA binding, Table 1, 10 μM): < 10%
- inhibition at 40 µM ([11]; read-out: % Inhibition of [^3 H]4-MA binding, Table 1, 40 μM): < 10%
- inhibition at 200 µM ([11]; read-out: % Inhibition of [^3 H]4-MA binding, Table 1, 200 μM): < 10%
- inhibition at 10 µM ([11]; read-out: % Inhibition of [^3 H]4-MA binding, Table 2, 10 μM): < 10%
- inhibition at 40 µM ([11]; read-out: % Inhibition of [^3 H]4-MA binding, Table 2, 40 μM): < 10%
- inhibition at 200 µM ([11]; read-out: % Inhibition of [^3 H]4-MA binding, Table 2, 200 μM): < 10%
- 4-Androstendione formed (% of control) ([12]; 5 μM): 103 ± 2 % of control
- 4-Androstendione formed (% of control) ([12]; 20 μM): 106 ± 5 % of control
- effect on metabolism of testosterone to 4-androstenedione (17β-steroid dehydrogenase) ([12]; words): did not affect
- visible change in cell morphology [13]: did not produce any visible
- effect on 5α-reductase reduction (PC-3; 5 to 20 μM, words): did not affect
- activity at 5 µM (PC-3; Homo sapiens, PC-3, 5 μM, read-out: 5α-DHT formed (% of control)): 123 ± 2%
- activity at 20 µM (PC-3; Homo sapiens, PC-3, 20 μM, read-out: 5α-DHT formed (% of control)): 121 ± 5%
- Pigmented Macule, Untreated (L) (hamster flank organ; Table 4, 1 mg fatty acid alone, 18 days): 4.4 ± 0.4 mm^2
- Pigmented Macule, Untreated (L) (hamster flank organ; Table 4, 2 mg fatty acid alone, 18 days): 4.6 ± 1.4 mm^2
- Pigmented Macule, Untreated (L) (hamster flank organ; Table 4, T 0.5 μg + 1 mg fatty acid): 4.3 ± 0.6 mm^2
- Pigmented Macule, Untreated (L) (hamster flank organ; Table 4, T 0.5 μg + 2 mg fatty acid): 4.2 ± 0.4 mm^2
- significance vs T alone (hamster flank organ; Table 4, T + 1 mg fatty acid): N.S.
- significance vs T alone (hamster flank organ; Table 4, T + 2 mg fatty acid): N.S.
- inhibition of T-induced growth of pigmented macule (hamster flank organ; hamster, in vivo): did not inhibit
